Source: patent US20140323307A1, “MANAGEMENT METHOD AND MANAGEMENT SYSTEM FOR BIOMASS AT PLANT HARVEST” (Japan Science and Technology Agency, priority 2011, published 2014)

System: Arabidopsis thaliana
Conditions: linolenic acid-deficient, linolenic acid-excess and wild-type strains; 2 mM GSH or 1 mM GSSG aqueous solution, 25 mL per three individuals, once a week for 5 weeks; FIG. 9
Protocol: Each strain of Arabidopsis thaliana tested here was grown in the following manner: seeds of three individuals of each strain of Arabidopsis thaliana were sown in a pot, and grown from when the seeds were sown to when the individuals bore seeds (grown for about 2.5 to 3 months) under the controlled condition where light intensity was approximately 100 μE·m^−2·S^−1, the light and dark cycle was set to 16 hours and 8 hours, and the temperature was 22° C. […] Above-ground parts of the obtained Arabidopsis thaliana were harvested, and dried for five or more days in a dry house having a humidity of 5% and a temperature of 20° C. After they were thoroughly dried, the total biomass of above-ground parts at harvest (dry weight of the entire above-ground parts) and seed yield (dry weight of harvested seeds) for each pot were measured. As for the linolenic acid-deficient strain (triple mutant), only the total biomass of above-ground parts at harvest was measured.

`N[C@@H](CCC(=O)N[C@@H](CS)C(=O)NCC(=O)O)C(=O)O` [glutathione] was tested, and the “biomass at harvest (total biomass of above-ground parts, dry weight; seed yield) compared to the controls” value was “significantly increased in biomass”.
